# Assay results from PubChem BioAssay AID1996.
# Details: buffer; pH 7.4; 200.0 µM
row,SMILES,solubility kinetic [µg/mL]
1,O=C(COC(=O)c1ccc(Br)o1)NCc1ccccc1Cl,9
2,O=[N+]([O-])c1cccnc1N1CCN(c2ccccc2F)CC1,9.6
3,CSc1nc(-c2ccccc2)nc(NC(=O)C(C)C)c1C(C)=O,0.8
4,CC(=O)NC(CC(=O)OCC(=O)c1cc(C)ccc1C)c1ccccc1 (stereo not given),> 53
5,CC(C)c1ccc(OCC(=O)NC2CCCC2)cc1,30.2
6,CC(=O)c1cnc(Nc2cccc(C)c2)s1,13.7
7,COc1ccc(C2CC(=O)C(C=NCCO)=C(O)C2)cc1 (stereo not given),38
8,Cc1cc(C)c(NC(=O)COC(=O)C2CCC2)c(Cl)c1,42.2
9,CNC(=O)c1c(O)c2cccc3c2n(c1=O)CCC3,2.6
10,NC(=O)c1cccnc1Oc1ccc(Cl)cc1Cl,37.1
11,CC(=O)Nc1nonc1-c1nc2ccccc2n1C,3.1
12,O=C(Cc1ccc(Cl)cc1)OCC(=O)N1CCCCCC1,> 46.5
13,COc1ccc([C@@H]2Sc3ccccc3NC(=O)[C@@H]2O)cc1,6.2
14,CCc1cccc(NC(=O)C2CCN(c3ncnc4sc(C)c(C)c34)CC2)c1,2.7
15,COc1cc(NC(=O)c2ccccc2Cl)c2ncccc2c1,< 0.3
16,COc1cc2ccccc2cc1C(=O)N1CCc2ccccc21,1.9
17,Cc1cc(Br)ccc1S(=O)(=O)n1ccnc1C,> 47.3
18,Cc1ccccc1NC(=O)CCCCC(=O)Nc1ccccc1C,2.6
19,CCCOc1cccc(C(=O)NCCNC(=O)c2ccccn2)c1,> 49.1
20,O=C(Cn1cc([N+](=O)[O-])ccc1=O)NCC(=O)Nc1ccc(F)c(F)c1F,9.2
21,CC(=O)c1ccc(OC(C)c2nc3ccccc3s2)cc1 (stereo not given),13.1
22,CCN(CC(=O)Nc1ccccc1Br)C1CCCCC1,9.1
23,Cc1ccc2c(c1)C(c1ccccc1)=NCC(=O)N2,> 37.5
24,Cc1[nH]c2ccccc2c1CCNC(=O)c1c(N)no[n+]1[O-],31.3

row,SMILES,solubility kinetic [µg/mL]
1,O=C(O)CCCNC(=O)/C=C/c1ccco1,26.5
2,CCCNC(=O)COC(=O)/C(C#N)=C/c1cc(C)n(CCC)c1C,1.6
3,Cc1ccc(C)c(OC(=O)c2cccnc2)c1,16.9
4,Cc1cccc(CC(C)NC(=O)CCc2nnc(-c3ccccc3)o2)n1 (stereo not given),> 52.6
5,Cc1ccc(C(=O)NNC(=O)c2ccncc2)cc1[N+](=O)[O-],> 45
6,Cc1cc(C)cc(N(CCC#N)C(=O)CSc2nc3ccccc3c(=O)[nH]2)c1,28.8
7,O=C(c1cc2cc(Cl)ccc2[nH]1)N1CCc2ccccc2C1,0.9
8,Cc1cccc2nc3ccccc3nc12,0.7
9,Cc1ccc(CSCC(=O)NCc2ccc(F)cc2)cc1,23.2
10,CCc1c(C)nc(N2CCN(c3ccccc3F)CC2)[nH]c1=O,5.6
11,S=C(NCc1ccccc1)N1CCn2cccc2C1c1ccncc1 (stereo not given),45.2
12,CC(=O)Nc1ccc(S(=O)(=O)N(C)c2ccc(OCCOc3cccc(C)c3)cc2)cc1,5
13,COCCn1c(C)cc(C(=O)CN2c3cccc4cccc(c34)S2(=O)=O)c1C,3.5
14,Cc1ccc(NC(=O)C2CCN(S(=O)(=O)c3cc([N+](=O)[O-])ccc3Cl)CC2)nc1,16
15,Cc1ccccc1Oc1nc2c(c(=O)n(C)c(=O)n2C)n1C,> 45
16,CN1CCCN(Cc2ccccc2Br)CC1,35.3
17,O=C(NCc1ccccn1)Nc1cc(Cl)ccc1Cl,11.9
18,CCOC(=O)/C=C/C(=O)Nc1ccc(Oc2ccccc2)cc1,3.8
19,CCCCn1c(=N)n(CC(O)c2ccccc2)c2ccccc21.Cl (stereo not given),> 51.9
20,CCCC1CCC(c2ccc(/C(N)=N/O)cc2)CC1 (stereo not given),< 0.3
21,CC1CCCC(C)N1C(=O)COC(=O)CCC(=O)c1ccc(F)cc1 (stereo not given),> 52.4
22,O=C(NC1CC1)[C@@H]1CSC2c3ccccc3C(=O)N21 (stereo not given in full),> 41.2
23,O=c1oc2ccccc2n1Cc1cccc(F)c1,8.3
24,CCOc1ccccc1/C=C/C(=O)N1CCN(C(=O)c2ccco2)CC1,> 53.2

row,SMILES,solubility kinetic [µg/mL]
1,O=C(O)[C@H](Cc1ccccc1)NC(=O)N1CCN(c2ccccc2)CC1,51.8
2,Cc1ccc(NC(=O)CN2C(=O)C3CC=C(Cl)CC3C2=O)cc1 (stereo not given),> 49.9
3,COc1ccccc1NC(=O)c1ccc(C(=O)c2ccccc2)o1,8.8
4,NS(=O)(=O)c1ccc(NC(=O)C(=O)NCCC(=O)O)cc1,> 47.3
5,CCCCn1c(N)c(N(CC)C(=O)COc2ccc(C#N)cc2)c(=O)[nH]c1=O,15.6
6,O=C(CCc1nc(-c2ccccc2F)no1)Nc1cccnc1,> 46.8
7,O=C(CN1C(=O)NC2(CCCCCC2)C1=O)c1ccc(F)cc1,> 47.8
8,Cc1ccccc1CC1SC(N)=NC1=O (stereo not given),21.8
9,O=C(CN1C(=O)c2ccccc2S1(=O)=O)Nc1ncc(Cl)cc1Cl,> 57.9
10,Cc1cc(C)c2nc(SCC(=O)Nc3cc(C)on3)c(C#N)cc2c1,< 0.2
11,CC1CCCCN1CC(O)COCc1ccc(Cl)cc1 (stereo not given),29.1
12,CCCCS(=O)(=O)N1CCCC(C(=O)NCC2CCCO2)C1 (stereo not given),41.1
13,Cc1[nH]c2ccccc2c1C(c1ccccn1)N1CCCC1 (stereo not given),39.9
14,O=C(NCCCN1CCOCC1)c1cc(-c2ccco2)nc2ccccc12,49.6
15,CC(C)Cc1nnc(NC(=O)CCC(=O)NC2CC2)s1,> 44.5
16,CSc1ncccc1C(=O)Nc1nc(C(C)(C)C)cs1,37.6
17,Cc1ccccc1CCNCc1cc2cccc(C)c2[nH]c1=O,> 46
18,Cl.NCCNC(=O)c1c(O)c2cccc3c2n(c1=O)CCC3,48.3
19,CCC(Oc1ccccc1)C(=O)Nc1ccccc1N1CCCCC1 (stereo not given),0.7
20,CCCNC(=O)N1c2ccccc2Sc2ccccc21,33.6
21,Cc1cccc2nc(C(=O)Nc3cccc(C(=O)NC4CC4)c3)cn12,5.5
22,COc1ccc(S(=O)(=O)NCCC(=O)NC2CCCCC2C)cc1[N+](=O)[O-] (stereo not given),20.1
23,S=C(NC1CC1)N1CCc2ccccc2C1,> 34.9
24,CCNC(=S)N1CCN(S(=O)(=O)c2ccc(Cl)s2)CC1,31.4

row,SMILES,solubility kinetic [µg/mL]
1,COC(=O)CNC(=O)COC(=O)c1ccc(Cl)nc1,> 43
2,CCCCCOC(=O)C1=C(C)NC(=O)NC1c1ccccc1 (stereo not given),4.9
3,O=C(CN1C(=O)c2ccccc2S1(=O)=O)c1ccccc1F,17.8
4,CN(C(=O)CSCC(=O)Nc1ccc(Cl)cc1)C1CCCCC1,5.9
5,C/C(=C\c1ccc(Cl)cc1)C(=O)c1c(C)cc(C)[nH]c1=O,42.8
6,CCCCN(C(=O)CN(C)CC(=O)Nc1cccc(OC)c1)c1c(N)n(CCCC)c(=O)[nH]c1=O,> 73.3
7,COc1ccc(C(=O)CC(=O)C(=O)Nc2c(C)cccc2C)cc1,15.6
8,COc1ccc(CCNCc2sccc2C)cc1OC.Cl,36
9,NS(=O)(=O)c1cccc(NC(=O)Nc2ccc(Cl)cc2)c1,10.7
10,CC1(C)C2CCC1(CS(=O)(=O)Nc1ccccc1)C(=O)C2 (stereo not given),42.8
11,CNc1nc(Cl)c(SC)c(NCc2cccc(OC)c2)n1,1
12,O=C1/C(=C\c2cccnc2)N2CCC1CC2,> 32.1
13,Cc1c(N2C(=O)c3cccc4cccc(c34)C2=O)cnn1C,> 43.7
14,OC1/C(=C/c2ccccc2F)N2CCC1CC2 (stereo not given),> 35
15,CC(=O)Nc1cccc(C(=O)OCC(=O)Nc2ccc(Cl)cn2)c1,6.9
16,O=C(Nc1cccc(S(=O)(=O)N2CCOCC2)c1)C1CC1,> 46.6
17,CCn1c(SCC#N)nc2ccccc2c1=O,> 36.8
18,CCN(c1ccccc1)S(=O)(=O)c1c(C)noc1C,31.4
19,Clc1cccc(C2Nc3cccc4cccc(c34)N2)c1,5.3
20,CNc1nc(N)c([N+](=O)[O-])c(Nc2cccc(Cl)c2)n1,0.4
21,Cc1cc(C)n2nc(SCC(=O)N3CCC(C)CC3)nc2n1,> 47.9
22,O=c1[nH]c2ccccc2o1,> 20.3
23,CCOC(=O)c1c(NC(=O)c2ccccc2C(=O)O)sc2c1CCCC2,41.5
24,Cc1ccc(C)c(NC(=O)CN(C)C(=O)COc2ccc3ccccc3c2)c1,3.1

row,SMILES,solubility kinetic [µg/mL]
1,COCCOc1ccc(C(F)(F)F)cc1NC(=O)CN1C(=O)NC2(CCCc3ccccc32)C1=O (stereo not given),16.8
2,COC(=O)Cc1c(C)nc(SCc2ccccc2)[nH]c1=O,16.4
3,Cc1cnc(NC(=O)CSCc2c(C)noc2C)s1,19.6
4,COc1ccc(OC)c([N+](=O)[O-])c1C(N)=O,> 33.9
5,CC(C(=O)Nc1ccccc1)N(C)CCOc1ccccc1 (stereo not given),43.7
6,CC(C)Oc1ccc(C(=O)OCC(=O)c2ccc[nH]2)cc1,15.1
7,Cc1ccc(O)c(NC(=S)NC(=O)C(C)C)c1,> 37.8
8,CC(=O)c1c(-c2ccccc2)c2cc(Cl)ccc2n(C)c1=O,38.8
9,c1ccc(-c2cnc(CN3CCN(c4ccccc4)CC3)o2)cc1,40
10,CC(=O)Oc1ccc2nc(-c3ccc(Br)o3)oc(=O)c2c1,4.2
11,CC(C)c1ccc(OCC(O)CN2CCCC2)cc1.Cl (stereo not given),43.8
12,Nc1ccccc1S(=O)(=O)C(F)F,28.4
13,c1cnc(N2CCN(Cc3ccc4c(c3)OCO4)CC2)cn1,44.5
14,COc1ccc(OC)c(-n2c(C)cc(C=O)c2C)c1,> 38.9
15,O=C(/C=C/c1cccc(F)c1)Nc1ccc(S(=O)(=O)N2CCOCC2)cc1,1
16,Cl.O=C(O)CC1(CC(=O)N2CCN(CCO)CC2)CCCC1,> 50.2
17,CCn1cc(C2=NC(CC(C)C)CO2)c2ccccc21 (stereo not given),9.7
18,Cc1ccc(NC(=O)CCN2C(=O)c3ccccc3C2=O)cc1,8.9
19,COc1ccc(OC)c(NC(=O)N2CCc3ccccc3C2)c1,> 46.9
20,O=C(OCC(=O)N1CCCC1)c1ccc(O)cc1,> 37.4
21,CN(C)C(=O)N1CCNCC1.Cl,> 29.1
22,Cc1ccc2nc(-c3ccc(O)c(O)c3)cn2c1.Cl,22.7
23,COc1ccc(OCC(O)CN(C)C(=O)C(C)Oc2ccccc2)cc1 (stereo not given),> 53.9
24,N#Cc1c(NCCCO)nc(NCc2ccccc2)c2c1CCN(Cc1ccccc1)C2,7.7
